Source: patent US12064437B2, “Methods for treating systemic lupus erythematosus and the use of biomarkers as a predictor of clinical sensitivity to therapies” (CELGENE CORPORATION, priority 2020, dated 2024)

System: subjects with active autoantibody-positive SLE
Experiment: Phase 2b study in SLE: SLE Responder Index 4 (SRI-4) response at week 24
Assay type: in vivo, human
Conditions: for Percentage of Subjects Who Achieve SRI(4) at Week 24, n/m (%) / SRI(4) at Week 24, Stratified Difference (%) (95% CI), Iberdomide - Placebo: ITT; for SRI-4 treatment effect versus placebo: week 24
Description: The pharmacokinetics, pharmacodynamics (PD), efficacy, and safety of oral iberdomide ((S)-3-[4-({4-[(morpholin-4-yl)methyl]phenyl}methoxy)-1-oxo-1,3-dihydro-2H-isoindol-2-yl]piperidine-2,6-dione-hydrogen chloride (1/1)) were evaluated in a phase 2b study in subjects with active autoantibody-positive SLE.
Adult SLE patients (N=288) with a ≥6-month history of SLE and SLE Disease Activity Index (SLEDAI 2K) ≥6 were randomized to placebo (n=83) or iberdomide 0.15 mg QD (n=42), 0.3 mg QD (n=82), or 0.45 mg QD (n=81). Clinical response was determined by the SLE Responder Index 4 (SRI-4) at week 24 for all patients and within pre-specified biomarker-enriched subsets based on expression of Ikaros, Aiolos, the Type 1 IFN signature (IFI27, IFI44, IFI44L, RSAD2), and other gene modules measured from fingerstick blood collected at baseline (Modular Immune Profile Test, DxTerity Diagnostics, Inc.). The primary objective of the study was to evaluate the clinical efficacy of 3 doses of iberdomide (0.45 mg once per day [QD], 0.30 mg QD, or 0.15 mg QD) compared to placebo, for the treatment of active SLE using the SLE Responder Index at Week 24.

[1] = B cell: High at baseline, 0.15 mg QD
[2] = B cell: High at baseline, 0.30 mg QD
[3] = B cell: High at baseline, 0.45 mg QD
[4] = IKZF1: High at baseline, 0.15 mg QD
[5] = IKZF1: High at baseline, 0.30 mg QD
[6] = IKZF1: High at baseline, 0.45 mg QD
[7] = IKZF1 Status of SNP rs4917014: 1 or 2 Copies, 0.15 mg QD
[8] = IKZF1 Status of SNP rs4917014: 1 or 2 Copies, 0.30 mg QD
[9] = IKZF1 Status of SNP rs4917014: 1 or 2 Copies, 0.45 mg QD
[10] = IKZF3 (Aiolos): High at baseline, 0.45 mg QD
[11] = Ikaros IFN: High at baseline, 0.15 mg QD
[12] = Ikaros IFN: High at baseline, 0.30 mg QD
[13] = Ikaros IFN: High at baseline, 0.45 mg QD

O=C1CC[C@H](N2Cc3c(OCc4ccc(CN5CCOCC5)cc4)cccc3C2=O)C(=O)N1 [iberdomide, (S)-3-[4-({4-[(morpholin-4-yl)methyl]phenyl}methoxy)-1-oxo-1,3-dihydro-2H-isoindol-2-yl]piperidine-2,6-dione-hydrogen chloride (1/1)]
SRI(4) stratified difference from placebo (0 copies of IKZF1 rs4917014 protective minor allele (G), 0.45 mg QD): 6.1% | estimated SRI-4 response rate (Aiolos (IKZF3) gene expression cutoff −0.49, 0.45 mg dose, prevalence vs. cutoff analysis): 60-65% | Percentage of Subjects Who Achieve SRI(4) at Week 24, n/m (%) [1]: 8/24 (33.3) % | SRI(4) at Week 24, Stratified Difference (%) (95% CI), Iberdomide - Placebo [1]: −0.7 (−22.56, 22.94) % | Percentage of Subjects Who Achieve SRI(4) at Week 24, n/m (%) [2]: 19/49 (38.8) % | SRI(4) at Week 24, Stratified Difference (%) (95% CI), Iberdomide - Placebo [2]: 4.5 (−15.06, 23.69) % | Percentage of Subjects Who Achieve SRI(4) at Week 24, n/m (%) [3]: 30/54 (55.6) % | SRI(4) at Week 24, Stratified Difference (%) (95% CI), Iberdomide - Placebo [3]: 20.4 (0.74, 38.01) % | SRI-4 treatment effect versus placebo (IFN High Aiolos High double-positive population, high dose 0.45 mg): 29.8% | SRI-4 treatment effect versus placebo (IFN High Aiolos High double-positive population, low dose 0.15 mg): 29.8% | SRI-4 treatment effect versus placebo (IFN High Aiolos Low population, low dose 0.15 mg): 26.8% | SRI-4 treatment effect versus placebo (IFN Low Aiolos High subset, high dose 0.45 mg): 35.0% | Percentage of Subjects Who Achieve SRI(4) at Week 24, n/m (%) [4]: 12/28 (42.9) % | SRI(4) at Week 24, Stratified Difference (%) (95% CI), Iberdomide - Placebo [4]: 7.0 (−14.36, 28.68) % | Percentage of Subjects Who Achieve SRI(4) at Week 24, n/m (%) [5]: 21/53 (39.6) % | SRI(4) at Week 24, Stratified Difference (%) (95% CI), Iberdomide - Placebo [5]: 2.4 (−15.87, 20.58) % | Percentage of Subjects Who Achieve SRI(4) at Week 24, n/m (%) [6]: 35/64 (54.7) % | SRI(4) at Week 24, Stratified Difference (%) (95% CI), Iberdomide - Placebo [6]: 16.1 (−1.76, 32.65) % | Percentage of Subjects Who Achieve SRI(4) at Week 24, n/m (%) [7]: 11/21 (52.4) % | SRI(4) at Week 24, Stratified Difference (%) (95% CI), Iberdomide - Placebo [7]: 23.0 (−2.36, 46.07) % | Percentage of Subjects Who Achieve SRI(4) at Week 24, n/m (%) [8]: 18/46 (39.1) % | SRI(4) at Week 24, Stratified Difference (%) (95% CI), Iberdomide - Placebo [8]: 7.9 (−12.18, 26.84) % | Percentage of Subjects Who Achieve SRI(4) at Week 24, n/m (%) [9]: 20/36 (55.6) % | SRI(4) at Week 24, Stratified Difference (%) (95% CI), Iberdomide - Placebo [9]: 21.3% | Percentage of Subjects Who Achieve SRI(4) at Week 24, n/m (%) (IKZF3 (Aiolos): High at baseline, 0.15 mg QD): 5/14 (35.7) % | SRI(4) at Week 24, Stratified Difference (%) (95% CI), Iberdomide - Placebo (IKZF3 (Aiolos): High at baseline, 0.15 mg QD, listed as Iberdomide): 2.2 (−24.82, 31.94) % | Percentage of Subjects Who Achieve SRI(4) at Week 24, n/m (%) (IKZF3 (Aiolos): High at baseline, 0.30 mg QD): 9/32 (28.1) % | SRI(4) at Week 24, Stratified Difference (%) (95% CI), Iberdomide - Placebo (IKZF3 (Aiolos): High at baseline, 0.30 mg QD, listed as Iberdomide): −7.1 (−31.13, 16.94) % | Percentage of Subjects Who Achieve SRI(4) at Week 24, n/m (%) [10]: 23/36 (63.9) % | SRI(4) at Week 24, Stratified Difference (%) (95% CI), Iberdomide - Placebo [10]: 32.9% | SRI(4) at Week 24, Stratified Difference (%) (95% CI), Iberdomide - Placebo (IKZF3 (Aiolos): High at baseline, 0.45 mg QD, listed as Iberdomide): 32.9 (7.74, 52.90) % | Percentage of Subjects Who Achieve SRI(4) at Week 24, n/m (%) [11]: 16/30 (53.3) % | SRI(4) at Week 24, Stratified Difference (%) (95% CI), Iberdomide - Placebo [11]: 18.6 (−3.69, 39.05) % | Percentage of Subjects Who Achieve SRI(4) at Week 24, n/m (%) [12]: 21/49 (42.9) % | SRI(4) at Week 24, Stratified Difference (%) (95% CI), Iberdomide - Placebo [12]: 8.9 (−10.47, 27.36) % | Percentage of Subjects Who Achieve SRI(4) at Week 24, n/m (%) [13]: 36/62 (58.1) % | SRI(4) at Week 24, Stratified Difference (%) (95% CI), Iberdomide - Placebo [13]: 24.3% | SRI(4) at Week 24, Stratified Difference (%) (95% CI), Iberdomide - Placebo (Ikaros IFN: High at baseline, 0.45 mg QD, listed as Iberdomide): 24.3 (5.45, 40.76) % | SRI(4) at Week 24, Stratified Difference (%) (95% CI), Iberdomide - Placebo (Overall Subjects, 0.15 mg QD): 11.4% | Percentage of Subjects Who Achieve SRI(4) at Week 24, n/m (%) (Overall Subjects, 0.15 mg QD, nonresponder imputation): 20/42 (47.6) % | SRI(4) at Week 24, Stratified Difference (%) (95% CI), Iberdomide - Placebo (Overall Subjects, 0.15 mg QD, listed as Iberdomide): 11.4 (−6.57, 29.00) % | SRI(4) at Week 24, Stratified Difference (%) (95% CI), Iberdomide - Placebo (Overall Subjects, 0.30 mg QD): 5.0% | Percentage of Subjects Who Achieve SRI(4) at Week 24, n/m (%) (Overall Subjects, 0.30 mg QD, nonresponder imputation): 33/82 (40.2) % | SRI(4) at Week 24, Stratified Difference (%) (95% CI), Iberdomide - Placebo (Overall Subjects, 0.30 mg QD, listed as Iberdomide): 5.0 (−9.77, 19.48) % | SRI(4) at Week 24, Stratified Difference (%) (95% CI), Iberdomide - Placebo (Overall Subjects, 0.45 mg QD): 19.4% | Percentage of Subjects Who Achieve SRI(4) at Week 24, n/m (%) (Overall Subjects, 0.45 mg QD, nonresponder imputation): 54.3%
